Each block holds one molecule with its values, some of them ahead of it.
Key:
[1] = biological target: T1, Chimera 1 backbone (Chimera 2, Chimera 3, Chimera 4) (Cupriavidus necator, UniProt P14697, N37E/S38A/R40K/R41P, form not given); test: reaction progress curve analysis, absorbance […] nm; format: biochemical; conditions: AcAcCoA 2 mM, MOPS 50 mM, NaCl 5 mM, MgCl2 5 mM, pH 7.0, 30 °C, apparent kcat, read-out: Chimera3
T1 construct: gene phaB; AAR^Cn1 with N37-R41 replaced by E37-P41 of AAR^CAp (E37, F38, K40, P41 told in text); E. coli BL21(DE3), IMAC

[2] = biological target: T2, Chimera 1 backbone (Chimera 2, Chimera 3, Chimera 4) (Cupriavidus necator, UniProt P14697, N37E/S38E/R40Q/R41P, form not given); test: as above; format: biochemical; conditions: AcAcCoA 2 mM, MOPS 50 mM, NaCl 5 mM, MgCl2 5 mM, pH 7.0, 30 °C, apparent kcat, read-out: Chimera4
T2 construct: gene phaB; AAR^Cn1 with N37-R41 replaced by E37-P41 of AAR^CAp (E37, F38, K40, P41 told in text); E. coli BL21(DE3), IMAC

[3] = biological target: T3, Chimera 1 backbone (Chimera 2, Chimera 3, Chimera 4) (Cupriavidus necator, UniProt P14697, N37E/S38F/R40K/R41G, form not given); test: as above; format: biochemical; conditions: AcAcCoA 2 mM, MOPS 50 mM, NaCl 5 mM, MgCl2 5 mM, pH 7.0, 30 °C, apparent kcat, read-out: Chimera2
T3 construct: gene phaB; AAR^Cn1 with N37-R41 replaced by E37-P41 of AAR^CAp (E37, F38, K40, P41 told in text); E. coli BL21(DE3), IMAC

[4] = biological target: T4, Chimera 5 (Cupriavidus necator, UniProt P14697, G33A/N37E/S38F/R40K/R41P/E46K, form not given); test: as above; format: biochemical; conditions: AcAcCoA 2 mM; MOPS 50 mM, NaCl 5 mM, MgCl2 5 mM, pH 7.0, 30 °C; apparent kcat; read-out: Chimera5
T4 construct: gene phaB; AAR^Cn1 with segment G33-E46 replaced by A33-K46 of AAR^CAp (residues 36 and 44 conserved); E. coli BL21(DE3), IMAC

[5] = biological target: T4, Chimera 5; test: initial rates and reaction progress curves, global fit; format: biochemical; conditions: MOPS 50 mM, NaCl 5 mM, MgCl2 5 mM, pH 7.0, 30 °C
Source text: initial rates and reaction progress curves, global fit on Chimera 5

[6] = substrate: NC(=O)C1=CN([C@@H]2O[C@H](COP(=O)(O)OP(=O)(O)OC[C@H]3O[C@@H](n4cnc5c(N)ncnc54)[C@H](O)[C@@H]3O)[C@@H](O)[C@H]2O)C=CC1; test: purified protein; format: biochemical, Cupriavidus necator; conditions: AcAcCoA 2 mM, MOPS 50 mM, NaCl 5 mM, MgCl2 5 mM, pH 7.0, 30 °C, apparent kcat, varied: cofactor
[7] = substrate: NC(=O)C1=CN([C@@H]2O[C@H](COP(=O)(O)OP(=O)(O)OC[C@H]3O[C@@H](n4cnc5c(N)ncnc54)[C@H](OP(=O)(O)O)[C@@H]3O)[C@@H](O)[C@H]2O)C=CC1; test: purified protein; format: biochemical, Cupriavidus necator; conditions: AcAcCoA 2 mM, MOPS 50 mM, NaCl 5 mM, MgCl2 5 mM, pH 7.0, 30 °C, apparent kcat, varied: cofactor

T4 sequence (P14697 whole entry G33A/N37E/S38F/R40K/R41P/E46K, form open): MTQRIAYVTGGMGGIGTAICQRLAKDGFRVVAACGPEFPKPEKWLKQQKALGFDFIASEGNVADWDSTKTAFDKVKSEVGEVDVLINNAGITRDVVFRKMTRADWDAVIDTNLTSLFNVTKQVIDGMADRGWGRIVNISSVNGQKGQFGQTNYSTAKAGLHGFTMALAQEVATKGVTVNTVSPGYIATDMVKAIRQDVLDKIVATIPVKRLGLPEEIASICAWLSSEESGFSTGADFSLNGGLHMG
T1 sequence (P14697 whole entry N37E/S38A/R40K/R41P, form open): as the sequence (P14697 whole entry G33A/N37E/S38F/R40K/R41P/E46K, form open) above, with A33G, F38A, K46E counted along it
T3 sequence (P14697 whole entry N37E/S38F/R40K/R41G, form open): as the sequence (P14697 whole entry G33A/N37E/S38F/R40K/R41P/E46K, form open) above, with A33G, P41G, K46E counted along it
T2 sequence (P14697 whole entry N37E/S38E/R40Q/R41P, form open): as the sequence (P14697 whole entry G33A/N37E/S38F/R40K/R41P/E46K, form open) above, with A33G, F38E, K40Q, K46E counted along it

Km [1]: 0.886 mM
Km [2]: 618 µM
Km [3]: 140 µM
Km [4]: 0.043 mM
Molecule: NC(=O)C1=CN([C@@H]2O[C@H](COP(=O)(O)OP(=O)(O)OC[C@H]3O[C@@H](n4cnc5c(N)ncnc54)[C@H](O)[C@@H]3O)[C@@H](O)[C@H]2O)C=CC1 [NADH]

Km ([5]; NADH 1 mM, substrate inhibition model with KiS = KM): 50 µM
NADPH ([5]; substrate inhibition, second site, NADPH 1 mM): 324 [195–465] µM
Molecule: CC(=O)CC(=O)SCCNC(=O)CCNC(=O)[C@H](O)C(C)(C)COP(=O)(O)OP(=O)(O)OC[C@H]1O[C@@H](n2cnc3c(N)ncnc32)[C@H](O)[C@@H]1OP(=O)(O)O [AcAcCoA]

Km [1]: 1.75 mM
Km [2]: 120 µM
Km [3]: 1120 µM
Km [4]: 2.79 mM
Molecule: NC(=O)C1=CN([C@@H]2O[C@H](COP(=O)(O)OP(=O)(O)OC[C@H]3O[C@@H](n4cnc5c(N)ncnc54)[C@H](OP(=O)(O)O)[C@@H]3O)[C@@H](O)[C@H]2O)C=CC1 [NADPH]

B1: AAR^Cn1 (acetoacetyl-CoA reductase encoded by phaB1) (Cupriavidus necator H16) (protein)
chain: MTQRIAYVTGGMGGIGTAICQRLAKDGFRVVAGCGPNSPRREKWLEQQKALGFDFIASEGNVADWDSTKTAFDKVKSEVGEVDVLINNAGITRDVVFRKMTRADWDAVIDTNLTSLFNVTKQVIDGMADRGWGRIVNISSVNGQKGQFGQTNYSTAKAGLHGFTMALAQEVATKGVTVNTVSPGYIATDMVKAIRQDVLDKIVATIPVKRLGLPEEIASICAWLSSEESGFSTGADFSLNGGLHMG
notes: recombinant, expressed in E. coli BL21(DE3), purified by IMAC
Km [6]: 819 [688–975] µM
kcat [6]: 10.3 s⁻¹
kcat/Km [6]: 13000 M⁻¹ s⁻¹
Km [7]: 44 [40–49] µM
kcat [7]: 5.2 s⁻¹
kcat/Km [7]: 118000 M⁻¹ s⁻¹
